No end group written: not given here.
Legend:
[1] = test system: CD8 T-cells specific for the minimal epitope PDL111; assay: ELISPOT with PDL111-specific CD8 T cells; type: cell-based, human
Source text: (§1) The ELISPOT technique enabled screening a high number of peptide antigens for T-cell recognition, despite the availability of relatively few T-cells. We used the ELISPOT assay to quantify peptide-specific, effector cells that secreted IFN-γ, as described in Example 1. We performed the assays according to the guidelines provided by the cancer immunotherapy immunoguiding program (CIP; cimt.eu/cimt/files/dl/cip_guidelines.pdf). To measure T-cell reactivity, nitrocellulose-bottomed 96-well plates (MultiScreen MSIPN4W; Millipore) were coated overnight with the relevant antibodies. The wells were washed and blocked with X-vivo medium for 2 h. The Tumor Infiltrating Lymphoctyes (TILs) were added at different cell concentrations in triplicate wells, with PD-L1 peptides or with control peptide, and incubated overnight. The following day, the wells were washed, and the relevant biotinylated secondary antibody (Mabtech) was added, followed by the avidin-enzyme conjugate (AP-Avidin; Calbiochem/Invitrogen Life Technologies); finally, we added the enzyme substrate, NBT/BCIP (Invitrogen Life Technologies) for visualization. The spots on the developed ELISPOT plates were analyzed on a CTL ImmunoSpot S6 Ultimate-V analyzer with Immunospot software, v5.1.
[…] We analysed the reactivity towards PDL111, PDL1242-264 ([…]— PDLong2, SEQ ID NO: 91), 10104.1 (—OH) and 10104.1 (NH). […]

[2] = test system: PBMCs from malignant melanoma patients; assay: Co-stimulation assay: PBMCs stimulated with DCvacc plus peptide, read by intracellular TNFα/IFNγ staining; type: cell-based, human; conditions: for CD4+ T cell reactivity toward DCvacc increased by co-stimulation (donors) / CD8+ T cell reactivity toward DCvacc increased by co-stimulation (donors): eight donors, vs control peptide
Method: PBMCs from malignant melanoma patients were stimulated with autologous DCvacc with ratio 1:10 DCvacc:PBMCs. […] Second stimulation with DCvacc was performed on day 7 and followed by peptide co-stimulation on day […] (120 U/mL) was added a day after each peptide co-stimulations. A week after second peptide co-stimulation the cultures were analyzed for DCvacc response using intracellular cytokine staining.
For detection of cell subpopulations producing cytokines (IFN-γ and TNF-α), PBMCs that were stimulated with DCvacc and co-stimulated with peptides for two weeks, were stimulated with DCvacc (ratio 1:10 DCvacc:PBMCs) for 5 hours at 37° C. with 5% CO2. GolgiPlug (BD) was added at a dilution of 1:200 after the first hour of incubation. After 4 additional hours cells were washed twice with PBS, stained fluorochrome conjugated antibodies for surface markers (CD3-Amcyan, CD4-PerCP and CD8-Pacific Blue, all from BD). Cells were washed one additional time and thereafter were fixed and permeabilized with Fixation/Permeabilization and Permeabilization Buffer (eBioscience), according to manufacturer's instructions. Cells were subsequently stained with fluorochrome-conjugated antibodies for intracellular cytokines. The following combinations were used: IFN-γ-PE-CY7 (BD), TNF-α-APC (eBioscience). […] Stained cells were analyzed using a BD FACSCanto II flow cytometer and further analysis was performed with BD FacsDiva Software.

[3] = test system: cells from spleen and draining lymph nodes; assay: IFNγ-Elispot of spleen and dLN cells from DNFB-treated mice, stimulated ex vivo with peptide (Example 4); type: cell-based, C56BL/6 mice; conditions: not with control, 5 μg/ml peptide ex vivo
Method: A solution of 0.15% 2,4-dinitrofluorobenzene (DNFB; an allergen) in 1:4 olive oil/ace-tone (OOA) (or just OOA as a control) was painted on back of both ears of C56BL/6 mice for 3 consecutive days (days 0-2). On day 5 the mice were sacrificed and a single cell solution of the removed spleen and draining lymph nodes (dLNs) was made for further analysis by IFNγ-Elispot.
8-9×10^5 cells/well were stimulated ex vivo in Elispot plates with 5 μg/ml mPD-L1long1 (mLong1 from Example 3) or mPD-L1short (a part of the mLong1 peptide having the sequence […] (SEQ ID NO: 101)) for 18-20 hours. Spot count for the peptide stimulated wells was subtracted the background (spot count of wells with no peptide stimulation).
(§2) • Following sacrifice of mice, spleen (and draining lymph nodes (dLNs)) were removed. • Spleen and dLNs was smashed through a […] cell strainer into a 50 ml tube with media (RPMI+10% FCS+1% pen/strep) and washed for at 300 G for 5 minutes, repeated for dLNs. Splenocytes was lysed with RBC lysis buffer for 1 min and washed in media twice. • Cells were counted and transferred to IFNγ Ab-coated Elispot plates in cell number of 9×10^5 cells/well. Coating antibody: Anti-mouse IFN-g mAb AN18 (Mabtech cat no. 3321-3-1000). • Stimulatory peptides were added to designated wells in concentrations of 5 μg/ml. Control wells were not stimulated with peptide. • Elispot plates were developed after 18-20 hours. • Detection antibody Anti-mouse IFN-g mAb R4-6A2-Biotin (Mabtech cat no. 3321-6-1000). Avidin-enzyme conjugate (AP-Avidin; Calbiochem/Invitrogen Life Technologies) and enzyme substrate, NBT/BCIP (Invitrogen Life Technologies) used for visualization. • Spot count for peptide-stimulated wells was always subtracted the corresponding wells without peptide stimulation (the background) • Negative values were sat to zero.

[4] = test system: splenocytes; assay: IFNγ-Elispot of splenocytes from IFNγ-injected mice, stimulated ex vivo with mPDL1 peptides (Example 3); type: cell-based, C56BL/6 mice; conditions: splenocytes after prior IFNγ injection; 5 μg/ml peptide ex vivo, 18-20 hours
Method: C56BL/6 mice were injected with 1 μg IFNγ in 200 μl PBS i.p (or no injection for control) two days apart (day 0+2) to simulate inflammation. On day 5 the mice were sacrificed and a single cell solution of the removed spleen was made for further analysis by IFNγ-Elispot.
9×10^5 splenocytes/well were stimulated ex vivo in Elispot plates with 5 μg/ml peptides from murine (m)PDL1 for 18-20 hours. Spot count for the peptide stimulated wells was subtracted the background (spot count of wells with no peptide stimulation).
as §2, with “Avidin-enzyme conjugate (AP-Avidin; Calbiochem/Invitrogen Life Technologies) and enzyme substrate, NBT/BCIP (Invitrogen Life Technologies) used for visualization. • Spot count for peptide-stimulated wells was always subtracted the corresponding wells without peptide stimulation (the background) • Negative values were sat to zero.” left out

[5] = test system: PD-L1-specific T cells; assay: Vaccination of mice with mPD-L1long1, IFNγ-Elispot (Example 5); type: in vivo, C56BL/6 mice
Method: C56BL/6 mice were vaccinated subcutaneously (s.c) on the lower back with 100 μg mPD-L1long1 (mLong1 from Example 3) with or without Montanide as an adjuvant (only Montanide as a control) at day 0. On day 7 the mice were sacrificed and a single cell solution of the removed spleen was made for further analysis by IFNγ-Elispot.
9×10^5 splenocytes/well were stimulated ex vivo in Elispot plates with 5 μg/ml mPD-L1long1 or mPD-L1short for 18-20 hours. Spot count for the peptide stimulated wells was subtracted the background (spot count of wells with no peptide stimulation).
as §2

[6] = test system: tumor-infiltrating lymphocytes from 7 melanoma patients; assay: IFNγ ELISPOT on tumor-infiltrating lymphocytes (Example 2); type: cell-based, human
Source text: as §1

[7] = PBMCs before vaccination (baseline)
[8] = peptide-vaccinated mice (100 μg s.c.) compared to adjuvant alone, day 7

Substance: Arg-Thr-His-Leu-Val-Ile-Leu-Gly-Ala-Ile-Leu-Leu-Cys-Leu-Gly-Val-Ala-Leu-Thr-Phe-Ile-Phe-Arg-Leu-Arg-Lys-Gly-Arg-NH2 (RTHLVILGAILLCLGVALTFIFRLRKGR-NH2) [IO104.1-NH2]
- reactivity of PDL111-specific CD8 T cells, ELISPOT [1]: able to react

Substance: Arg-Thr-His-Leu-Val-Ile-Leu-Gly-Ala-Ile-Leu-Leu-Cys-Leu-Gly-Val-Ala-Leu-Thr-Phe-Ile-Phe-Arg-Leu-Arg-Lys-Gly-Arg-OH (RTHLVILGAILLCLGVALTFIFRLRKGR-OH) [IO104.1-OH]
- reactivity of PDL111-specific CD8 T cells, ELISPOT [1]: able to react

Substance: FMTYWHLLNAFTVTVPKDL (listed as Homo sapiens) [PDLong1]
- CD4+ T cell reactivity toward DCvacc increased by co-stimulation (donors) ([2]; PBMCs after four vaccinations): all donors
- CD8+ T cell reactivity toward DCvacc increased by co-stimulation (donors) ([2]; PBMCs after four vaccinations): five out of eight donors
- CD4+ T cell reactivity toward DCvacc increased by co-stimulation (donors) [2, 7]: six out of eight donors
- CD8+ T cell reactivity toward DCvacc increased by co-stimulation (donors) [2, 7]: seven out of eight donors
- CD4+ T cells reacting against DCvacc compared to control peptide ([2]; all cultures, P=0.02): significantly greater extent
- CD8+ T cells reacting against DCvacc compared to control peptide ([2]; all cultures, P=0.05): significantly greater extent
- number of PBMCs that showed reactivity against DCvacc ([2]; cocultured with peptide compared to the control HIV epitope): increase

Substance: GIIFTACCHL (listed as Mus musculus) [mPD-L1short]
- recognition by dLNs, IFNγ-Elispot [3]: recognized
- recognition by splenocytes, IFNγ-Elispot [3]: recognized

Substance: MRIFAGIIFTACCHLLRA (listed as Mus musculus) [mLong1]
- recognition by T cells, IFNγ-Elispot [4]: most positive results
- recognition by dLNs, IFNγ-Elispot [3]: recognized
- recognition by splenocytes, IFNγ-Elispot [3]: recognized
- PD-L1-specific T cell response in the draining lymph nodes (DLNs) [5, 8]: strong
- PD-L1-specific T cell response in the spleens [5, 8]: strong
- PD-L1-specific response by IFNγ Elispot, ex vivo stimulation with mPD-L1long ([5]; vaccinated mice): increased
- PD-L1-specific response by IFNγ Elispot, ex vivo stimulation with mPD-L1 short ([5]; vaccinated mice): increased

Substance: RTHLVILGAILLCLGVALTFIFRLRKGR (not fully specified; listed as Homo sapiens) [IO104.1, positions 238 to 265 of hPD-L1; C terminal acid or amide form]
- T cell response, IFNγ ELISPOT (patients responding) [6]: three of the patients

Substance: WVLLGSILLFLIVVSTVLLFLRKQV (listed as Mus musculus) [mLong3]
- recognition by T cells, IFNγ-Elispot [4]: most positive results
